In test [1] the target is T1, androgen receptor (rat ventral prostate cytosol) (Rattus norvegicus, UniProt P15207).
T1 construct: from tissue; host or cells: ventral prostate of castrated male Sprague Dawley or Wistar rats, cytosol
T1 sequence (P15207 1-902): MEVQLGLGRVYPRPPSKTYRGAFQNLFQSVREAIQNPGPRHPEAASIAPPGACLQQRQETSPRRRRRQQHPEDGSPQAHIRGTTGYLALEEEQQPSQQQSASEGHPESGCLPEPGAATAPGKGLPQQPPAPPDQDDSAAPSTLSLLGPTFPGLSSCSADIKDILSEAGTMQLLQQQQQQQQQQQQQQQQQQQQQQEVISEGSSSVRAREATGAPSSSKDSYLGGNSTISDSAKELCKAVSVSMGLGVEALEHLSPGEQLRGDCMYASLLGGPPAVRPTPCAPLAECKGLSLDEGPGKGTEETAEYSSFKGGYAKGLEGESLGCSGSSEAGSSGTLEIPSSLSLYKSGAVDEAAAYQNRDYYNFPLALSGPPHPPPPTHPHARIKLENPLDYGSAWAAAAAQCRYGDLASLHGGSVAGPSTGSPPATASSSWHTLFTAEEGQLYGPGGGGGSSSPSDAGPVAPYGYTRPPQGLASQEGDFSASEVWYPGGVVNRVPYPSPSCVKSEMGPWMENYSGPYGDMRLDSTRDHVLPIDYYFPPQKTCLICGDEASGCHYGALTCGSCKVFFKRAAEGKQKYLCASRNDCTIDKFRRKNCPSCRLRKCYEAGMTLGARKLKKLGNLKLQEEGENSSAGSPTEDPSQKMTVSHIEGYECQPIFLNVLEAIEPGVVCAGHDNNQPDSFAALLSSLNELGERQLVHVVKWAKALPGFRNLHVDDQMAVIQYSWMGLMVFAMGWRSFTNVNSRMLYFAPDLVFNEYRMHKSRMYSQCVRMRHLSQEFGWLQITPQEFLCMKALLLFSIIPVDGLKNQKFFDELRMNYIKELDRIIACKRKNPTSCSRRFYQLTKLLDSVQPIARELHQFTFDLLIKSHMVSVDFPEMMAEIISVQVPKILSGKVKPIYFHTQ
The test can be described thus: Androgen Receptor Binding Using Rat Ventral Prostate Cytosol. The note with it: for IC50: read-out: IC50. As for the experimental part:
(§1) The assay was run on a 96 well plate with each well filled with a total reaction volume 150 μL, of a solution containing 5 pmol androgen receptor LBD (Panvera) or 30 μL of freshly prepared rat cytosol, 0.5 nM [^3H] […] (TED buffer contains 10 mM Tris.HCl pH 7.4, 1 mM sodium molybdate, 1.5 mM EDTA, 1 mM DTT and 10% (v/v) glycerol.)
(§2) On day one, the solution containing receptor, tracer and TED buffer was distributed into a 96 well plate. Diluted test compound or control vehicle was then added to individual wells and the plate incubated at 4° C. overnight.
(§3) On day two, to each well was then added 20 μL human γ-globulin (ICN 823102), prepared at 25 mg/ml in TE pH 8.0, and 55 μL 40% polyethylene glycol 8000 (JT Baker U222-08), prepared in TE pH 8.0. The plate was incubated at 4° C. for 60 minutes. During incubation, the harvester was rinsed with 10% PEG 8000, prepared in TE pH 8.0, and a GF/C Unifilter-96 was pre-wet with 10% PEG. The binding reaction was filtered, the retentate was washed three times with 10% PEG and dried under vacuum for a couple of minutes, then dried at 50° C. for 5 min and the plate was bottom sealed. Next, 25 μL of Microscint-20 (Packard) was added to the filter wells and the plate was top sealed. The plate wells were then counted on a TopCount (Packard).
Rat Prostate Cytosol Preparation:
Male Sprague Dawley or Wistar rats (Charles River, 200-300 g) were used for each preparation. The day before preparing the cytosol, the rats were castrated using standard surgical procedures.
The rats were euthanized by carbon dioxide asphyxiation. The rat prostates were quickly removed and placed on ice in pre-chilled, pre-weighed 50 mL plastic tubes. No more than five prostates were placed into one tube. The tubes were then weighed and the prostate tissue wet weights calculated.
To the chilled prostate tissue was then added […] of chilled homogenization buffer. The homogenization buffer was freshly prepared by mixing 10 mM Tris.HCl, pH 7.4, 1 mM sodium molybdate, 1.5 mM EDTA, 1 mM dithiothreitol, 10% (v/v) glycerol and 1% protease inhibitor cocktail (Sigma P 8340).
The prostate tissue was homogenized in a cold room using a pre-chilled Polytron PT3000 homogenizer (Brinkmann). Homogenization was performed at a speed setting of 20, three times for 10 sec bursts. The tubes containing the prostate tissue was kept on ice while homogenizing. The homogenate was allowed to rest on ice for 20 sec between bursts.
The homogenate was then placed into pre-chilled 3 mL polycarbonate ultracentrifuge tubes and centrifuged in the TLA-100 rotor of a TL-100 ultracentrifuge for 12 min at 100,000 rpm at 4° C. The resulting supernatant was stored in 1 mL aliquots at −80° C. until needed.
Binding to the androgen receptor was determined according to the protocol described in Example 86 using the above prepared rat cytosol.
% Inhibition was determined by testing dilutions of the test compound (usually duplicates of 10 μM) in the binding assay. Counts per well were measured and percents of inhibition determined. […] Counts per well were measured and IC50s determined by linear regression.

Test [2] has as its target T2, androgen receptor LBD (Panvera) (Rattus norvegicus, UniProt P15207).
T2 construct: 5 pmol androgen receptor LBD (Panvera); purchased Panvera
T2 sequence (P15207 651-882 limits assumed): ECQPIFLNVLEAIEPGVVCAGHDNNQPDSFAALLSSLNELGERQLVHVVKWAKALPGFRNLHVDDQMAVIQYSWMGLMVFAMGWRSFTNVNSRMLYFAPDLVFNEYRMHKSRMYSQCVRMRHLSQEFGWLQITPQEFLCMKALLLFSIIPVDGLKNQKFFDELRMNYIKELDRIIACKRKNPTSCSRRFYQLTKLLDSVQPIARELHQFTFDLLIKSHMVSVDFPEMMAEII
The test can be described thus: Androgen Receptor Filtration Binding Assay (PANVERA). The note with it: Androgen Receptor Binding (Panvera); 0.5 nM [3H] R1881 tracer. How it is done:
as §1, §2, §3
Counts per well were measured and IC50s determined by linear regression.

Setting [3] is: rat cytosol, concentration 1000 nM.

“And” between values parts separate entries of the source, which are not always exact repeats. Identical values can stand only once. Some results are limits rather than exact numbers.

As usually defined, the inhibition is the change of the read-out against control, counted positive when it falls. One may read the IC50 as the concentration needed to halve the response being measured. Take `CS(=O)(=O)n1c(C2(O)CCN(C(=O)OCc3ccccc3)CC2)cc2cc(Cl)c(C(F)(F)F)cc21` [compound 19]: in test [1] (setting [3]), the inhibition at 1 µM was -55%. The same compound had an IC50 in test [2] of more than 100 µM.

A word on the % Inhibition: it is the drop in the measured response relative to a control, in per cent. In the case of `CC(O)(Sc1ccc(Cl)cc1)c1cc2cc(C#N)c(C(F)(F)F)cc2[nH]1` (racemic) [compound 261], the “% Inhibition” value in test [1] (setting [3]) was determined as 14.05%. The same compound came in with an IC50 in test [2] of 1.46 µM.

Consider `CS(=O)(=O)n1c(C2(O)CCN(Cc3ccccc3)CC2)cc2cc(Cl)c(C(F)(F)F)cc21` [Compound #21], for which the inhibition at 1 µM in test [1] (setting [3]) was -41.5%. Also, in test [2], the IC50 was more than 10.2 µM.

Turning to `CC(O)(COC(=O)c1ccc(Cl)cc1)c1cc2cc(Cl)c(C(F)(F)F)cc2[nH]1` (stereo not drawn) [compound 62], the inhibition at 1 µM in test [1] (setting [3]) was 69%. The compound further came in with an IC50 in test [2] of 0.325 µM.

On to `CC(O)(c1cc2cc(C#N)c(C(F)(F)F)cc2[nH]1)S(=O)(=O)c1ccc(Cl)cc1` (racemic) [compound 262], for which the “% Inhibition” value in test [1] (setting [3]) is given as −8.4%. The compound also returned an IC50 in test [2] of more than 10 µM.

With `CC(O)(CSC1CCCCC1)c1cc2nc(C(F)(F)F)ccc2[nH]1` (racemic) [Compound #1], the “% Inhibition” value in test [1] (1 µM) turned out to be 22%. Also, the IC50 in test [2] worked out at 14 µM.

For `CC(O)(Sc1ccc(Cl)c(Cl)c1)c1cc2cc([N+](=O)[O-])c(C(F)(F)F)cc2[nH]1` (racemic) [compound 254], in test [1] (setting [3]), the “% Inhibition” value is reported as 41%. Also, the IC50 in test [1] (rat cytosol) was 0.67 µM; in test [2] it was 1.02 µM and 0.92 µM.

As for `CS(=O)(=O)n1c(C2(O)CCNCC2)cc2cc(Cl)c(C(F)(F)F)cc21` [Compound #23], the inhibition at 1 µM in test [1] (setting [3]) is -1.5%. The values for the IC50 in test [1] (rat cytosol) and in test [2] were 6 µM and 54 µM, respectively.

On to `O=C(c1ccc(Cl)cc1)N1CCC(O)(c2cc3cc(Cl)c(C(F)(F)F)cc3[nH]2)CC1` [Compound #25], for which, in test [1] (setting [3]), the inhibition at 1 µM was -83.5%. For the same compound, in test [2], the IC50 came out at 8.8 µM.

For the compound `CC(O)(Sc1ccccc1)c1cc2cc([N+](=O)[O-])c(C(F)(F)F)cc2[nH]1` (racemic) [compound 258], the “% Inhibition” value in test [1] (setting [3]) was 35.4%. The same compound yielded an IC50 in test [2] of 2.45 µM.

As to `OC1(c2cc3cc(Cl)c(C(F)(F)F)cc3[nH]2)CCN(Cc2ccccc2)CC1` [Compound #22], the IC50 in test [2] is more than 9.6 µM.

For `CC(O)(CSc1ccc(F)cc1)c1cc2cc(Cl)c(C(F)(F)F)cc2[nH]1` (stereo not drawn) [compound 83], in test [2], the half-inhibitory concentration (IC50) was found to be 0.16 µM.

The values are drawn from patent US8394971B2, “Indole derivatives as selective androgen receptor modulators (SARMS)” (Janssen Pharmaceutica N.V., priority 2004, dated 2013).
